Source: US11834434B2, “Substituted 2-heteroaryloxypyridines and salts thereof and their use as herbicidal agents” (Bayer Aktiengesellschaft, priority 2018, dated 2023)

Legend:
Type in all cases: in vivo
Stellaria media (STEME) [1] = assay: Pre-emergence herbicidal action against Stellaria media; conditions: 1280 g/ha; scored visually after about 3 weeks vs untreated controls; 100% = plants have died, 0% = like control plants
Outline: (§1)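 Pre-emergence pot test in sandy loam: WP or EC formulations sprayed onto covering soil at 600 L/ha water with 0.5% additive, at 1280 g/ha. Greenhouse growth about 3 weeks; damage scored visually as percent versus untreated controls (100% = plants dead).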

[2] = test system: Matricaria inodora (MATIN); assay: Pre-emergence herbicidal action against Matricaria inodora; conditions: 1280 g/ha; scored visually after about 3 weeks vs untreated controls; 100% = plants have died, 0% = like control plants
Outline: as §1

[3] = test system: Abutilon theophrasti (ABUTH); assay: Pre-emergence herbicidal action against Abutilon theophrasti; conditions: 1280 g/ha; scored visually after about 3 weeks vs untreated controls; 100% = plants have died, 0% = like control plants
Outline: as §1

[4] = test system: Amaranthus retroflexus (AMARE); assay: Post-emergence herbicidal action against Amaranthus retroflexus; conditions: 1280 g/ha; rated visually after about 3 weeks vs untreated controls; 100% = plants have died, 0% = like control plants
Outline: (§2)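 Weeds sown in sandy loam, grown in greenhouse and treated at one-leaf stage (2–3 weeks after sowing) with WP or EC formulations as aqueous spray plus 0.5% additive at 600 L/ha water. Application rate 1280 g/ha. Visual rating after about 3 weeks versus untreated controls (100% = plants dead, 0% = like control).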

Stellaria media (STEME) [5] = assay: Post-emergence herbicidal action against Stellaria media; conditions: 1280 g/ha; rated visually after about 3 weeks vs untreated controls; 100% = plants have died, 0% = like control plants
Outline: as §2

Poa annua (POAAN) [6] = assay: Pre-emergence herbicidal action against Poa annua; conditions: 1280 g/ha; scored visually after about 3 weeks vs untreated controls; 100% = plants have died, 0% = like control plants
Outline: as §1

[7] = test system: Amaranthus retroflexus (AMARE); assay: Pre-emergence herbicidal action against Amaranthus retroflexus; conditions: 1280 g/ha; scored visually after about 3 weeks vs untreated controls; 100% = plants have died, 0% = like control plants
Outline: as §1

Setaria viridis (SETVI) = assay: Pre-emergence herbicidal action against Setaria viridis; conditions: 1280 g/ha; scored visually after about 3 weeks vs untreated controls; 100% = plants have died, 0% = like control plants
Outline: as §1

Lolium rigidum (LOLRI) = assay: Pre-emergence herbicidal action against Lolium rigidum; conditions: 1280 g/ha; scored visually after about 3 weeks vs untreated controls; 100% = plants have died, 0% = like control plants
Outline: as §1

Poa annua (POAAN) [8] = assay: Post-emergence herbicidal action against Poa annua; conditions: 1280 g/ha; rated visually after about 3 weeks vs untreated controls; 100% = plants have died, 0% = like control plants
Outline: as §2

[9] = test system: Echinochloa crus-galli (ECHCG); assay: Post-emergence herbicidal action against Echinochloa crus-galli; conditions: 1280 g/ha; rated visually after about 3 weeks vs untreated controls; 100% = plants have died, 0% = like control plants
Procedure: (§3) Seeds of mono- and dicotyledonous weed plants were placed in plastic pots in sandy loam soil (doubly sown with in each case one species of mono- or dicotyledonous weed plants per pot), covered with soil and cultivated in a greenhouse under controlled growth conditions. 2 to 3 weeks after sowing, the test plants were treated at the one-leaf stage. The compounds of the invention, formulated in the form of wettable powders (WP) or as emulsion concentrates (EC), were applied onto the green parts of the plants as aqueous suspension or emulsion with addition of 0.5% additive at a water application rate of 600 liters per hectare (converted). After the test plants had been kept in the greenhouse under optimum growth conditions for about 3 weeks, the activity of the preparations was rated visually in comparison to untreated controls. For example, 100% activity=the plants have died, 0% activity=like control plants. Tables B1 to B8 below show the effects of selected compounds of the general formula (I) according to Table 1 on various harmful plants and an application rate corresponding to 1280 g/ha, which were obtained by the experimental procedure mentioned above.

[10] = test system: Echinochloa crus-galli (ECHCG); assay: Pre-emergence herbicidal action against Echinochloa crus-galli; conditions: 1280 g/ha; scored visually after about 3 weeks vs untreated controls; 100% = plants have died, 0% = like control plants
Outline: as §1

[11] = test system: Matricaria inodora (MATIN); assay: Post-emergence herbicidal action against Matricaria inodora; conditions: 1280 g/ha; rated visually after about 3 weeks vs untreated controls; 100% = plants have died, 0% = like control plants; column head prints STEME
Procedure: as §3

[12] = test system: Abutilon theophrasti (ABUTH); assay: Post-emergence herbicidal action against Abutilon theophrasti; conditions: 1280 g/ha; rated visually after about 3 weeks vs untreated controls; 100% = plants have died, 0% = like control plants
Outline: as §2

Poa annua (POAAN) [13] = assay: Early post-emergence herbicidal action against Poa annua; conditions: 1900 g/ha; scored visually 9 to 12 days after treatment vs untreated controls; 100% = plants have died, 0% = like control plants
Procedure: (§4) Seeds of monocotyledonous or dicotyledonous weed plants were placed in 96-well microtiter plates in quartz sand and grown in a climatized chamber under controlled growth conditions. 5 to 7 days after sowing, the test plants were treated at the cotyledon stage. The compounds according to the invention, formulated in the form of emulsion concentrates (EC), were applied with a water application rate of the equivalent of 2200 liters per hectare. After the test plants had been left to stand in the climatized chamber for 9 to 12 days under optimum growth conditions, the effect of the preparations was scored visually in comparison to untreated controls. For example, 100% activity=the plants have died, 0% activity=like control plants. Tables A1 to A2 below show the effects of selected compounds of the general formula (I) according to Table 1 on various harmful plants and an application rate corresponding to 1,900 g/ha, which were obtained by the experimental procedure mentioned above.

Agrostis tenuis (AGSTE) = assay: Early post-emergence herbicidal action against Agrostis tenuis; conditions: 1900 g/ha; scored visually 9 to 12 days after treatment vs untreated controls; 100% = plants have died, 0% = like control plants
Procedure: as §4

| SMILES | Pre-emergence action against Stellaria media (STEME) (Stellaria media (STEME) [1]) | Pre-emergence action against Matricaria inodora (MATIN) [2] | Pre-emergence action against Abutilon theophrasti (ABUTH) [3] | Post-emergence action against Amaranthus retroflexus (AMARE) [4] | Post-emergence action against Stellaria media (STEME) (Stellaria media (STEME) [5]) | Pre-emergence action against Poa annua (POAAN) (Poa annua (POAAN) [6]) | Pre-emergence action against Amaranthus retroflexus (AMARE) [7] | Pre-emergence action against Setaria viridis (SETVI) (Setaria viridis (SETVI)) | Pre-emergence action against Lolium rigidum (LOLRI) (Lolium rigidum (LOLRI)) | Post-emergence action against Poa annua (POAAN) (Poa annua (POAAN) [8]) | Post-emergence action against Echinochloa crus-galli (ECHCG) [9] | Pre-emergence action against Echinochloa crus-galli (ECHCG) [10] | Post-emergence action against Matricaria inodora (MATIN) [11] | Post-emergence action against Abutilon theophrasti (ABUTH) [12] | Early post-emergence action against Poa annua (POAAN) (Poa annua (POAAN) [13]) | Early post-emergence action against Agrostis tenuis (AGSTE) (Agrostis tenuis (AGSTE)) |
| --- | --- | --- | --- | --- | --- | --- | --- | --- | --- | --- | --- | --- | --- | --- | --- | --- |
| Cc1cc(C)c(Cc2ccc(F)cc2F)c(Oc2ncc(F)cn2)n1 [Example I-481] | 100% | 100% | 100% | 100% | 100% | 100% | 100% | 100% | 100% | 100% | 100% | 100% | 90% | 100% | – | – |
| Cc1ccc(Cc2ccc(F)cc2F)c(Oc2ncccn2)n1 [Example I-444] | 100% | 100% | – | – | 90% | 100% | 100% | 100% | 90% | 100% | – | – | 90% | – | – | – |
| Cc1cc(C)c(Cc2ccc(F)cc2)c(Oc2ncc(F)cn2)n1 [Example I-479] | 100% | 100% | 100% | 100% | 100% | 100% | 100% | 100% | 100% | 100% | 100% | 100% | 100% | 100% | – | – |
| Cc1ccc(Oc2ccccc2)c(Oc2ncc(Cl)cn2)n1 [Example I-500] | 100% | 90% | 100% | – | 100% | 100% | 100% | 100% | 100% | 100% | 90% | 100% | – | 100% | – | – |
| COc1cccc(Cc2c(C)cc(C)nc2Oc2ncc(F)cn2)c1 [Example I-484] | 100% | 100% | 100% | 100% | 100% | 100% | 100% | 100% | 100% | 100% | 100% | 100% | 100% | 100% | – | – |
| Cc1cc(C)c(Oc2ncc(Cl)cc2F)c(Oc2ncc(F)cn2)n1 [Example I-591] | – | – | – | – | – | – | – | – | – | – | – | – | – | – | 100% | 100% |
| COc1cc(Cc2c(C)cc(C)nc2Oc2ncc(F)cn2)ccc1F [Example I-487] | 100% | 100% | 100% | 100% | 100% | 100% | 100% | 100% | 100% | 100% | 100% | 100% | 100% | 100% | – | – |
| Cc1cc(C)c(Cc2ccccc2)c(Oc2ncc(F)cn2)n1 [Example I-478, 2-[(3-Benzyl-4,6-dimethyl-2-pyridyl)oxy]-5-fluoropyrimidine] | 100% | 100% | 100% | 100% | 100% | 100% | 100% | 100% | 100% | 100% | 90% | 100% | 90% | 100% | – | – |
| Cc1ccnc(Oc2ncccn2)c1Sc1ccc(F)cc1F [Example I-210] | 100% | 100% | 100% | – | – | 100% | 100% | 100% | 100% | 100% | 90% | 100% | – | 90% | – | – |
| Cc1ccnc(Oc2ncccn2)c1Sc1ccccc1 [Example I-216, 2-[(4-Methyl-3-phenylsulfanyl-2-pyridyl)oxy]pyrimidine] | 100% | 100% | 100% | 100% | 100% | 100% | 100% | 100% | 90% | 100% | 100% | 100% | – | 100% | – | – |
| Cc1cc(C)c(Oc2ncc(F)cn2)c(Oc2ncc(F)cn2)n1 [Example I-595] | – | – | – | – | – | – | – | – | – | – | – | – | – | – | 100% | 100% |
